This note sets out measurements from patent publication EP3262036B1, “THERAPEUTIC PYRIDAZINE COMPOUNDS AND USES THEREOF” (priority 2015, dated 2016).

Each structure is given as a SMILES string. pIC50: −log10 of the molar value. Counter-ions that a name gives are not always drawn.

One assay deals with BRG1 (Homo sapiens, UniProt P51532). Kind of assay: biochemical. It counts as binding. The following applies: BRG1 HTRF IC50 (µM). From the text:
IC50 measurements for inhibitors using BRG1 TR-FRET Binding Assay
On the technique in general: TR-FRET usually uses a lanthanide donor and a delayed reading to cut background.

The target in assay [1] is Polybromodomain-1 BromoDomain-5 (PB1-BD5) (Homo sapiens, UniProt Q86U86). In words: biochemical. From the text: IC50 measurements for inhibitors using Polybromodomain-1 BromoDomain-5 (PB1-BD5) SM TR-FRET Binding Assay
Chain of Polybromodomain-1 BromoDomain-5 (PB1-BD5) (Q86U86 645-766): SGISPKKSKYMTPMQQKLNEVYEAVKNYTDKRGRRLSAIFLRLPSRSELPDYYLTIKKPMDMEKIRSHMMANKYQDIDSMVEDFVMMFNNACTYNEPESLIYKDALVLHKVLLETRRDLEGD

Chain of BRG1 (P51532 1448-1575): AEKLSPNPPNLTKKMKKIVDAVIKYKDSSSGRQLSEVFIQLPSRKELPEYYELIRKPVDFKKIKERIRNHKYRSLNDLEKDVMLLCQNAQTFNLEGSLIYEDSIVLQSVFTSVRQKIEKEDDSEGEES

On to `Nc1nnc(-c2ccccc2O)cc1N1CCN(Cc2cccnc2)CC1` [Example 3, 2-(6-amino-5-(4-(pyridin-3-ylmethyl)piperazin-1-yl)pyridazin-3-yl)phenol], for which the half-inhibitory concentration (IC50) on BRG1 is 0.0373 µM. In addition, in assay [1], the pIC50 was 7.60.

`CS(=O)(=O)N1CCN(c2cc(-c3ccccc3O)nnc2N)CC1Cc1ccccc1` (stereo not drawn) [Example 119, 2-(6-amino-5-(3-benzyl-4-(methylsulfonyl)piperazin-1-yl)pyridazin-3-yl)phenol] returned a half-inhibitory concentration (IC50) against BRG1 of 0.0385 µM. For the same compound, the pIC50 in assay [1] is 7.63.

Compound `C[C@@H](Oc1cc(-c2ccccc2O)nnc1N)c1cccnc1` [Example 166, (R)-2-(6-amino-5-(1-(pyridin-3-yl)ethoxy)pyridazin-3-yl)phenol] had an IC50 at BRG1 of 0.132 µM.

`C[C@H](Oc1cc(-c2ccccc2O)nnc1N)c1cccnc1` [Example 167, (S)-2-(6-amino-5-(1-(pyridin-3-yl)ethoxy)pyridazin-3-yl)phenol]: on BRG1, the half-maximal inhibitory concentration (IC50) is 0.0251 µM.

In turn, `CC(Oc1cc(-c2ccccc2O)nnc1N)c1cccnc1` (stereo not drawn) [Example 171, 2-(6-amino-5-(1-(pyridin-3-yl)ethoxy)pyridazin-3-yl)phenol] had an IC50 against BRG1 of 0.0792 µM. This IC50 is about 3.2-fold higher than that of the compound before.

On BRG1, `CN1CCC(Oc2cc(-c3ccccc3O)nnc2N)CC1` [Example 172, 2-(6-amino-5-((1-methylpiperidin-4-yl)oxy)pyridazin-3-yl)phenol] registered an IC50 of 0.161 µM.

`CN(C)CCCOc1cc(-c2ccccc2O)nnc1N` [Example 175, 2-(6-amino-5-(3-(dimethylamino)propoxy)pyridazin-3-yl)phenol]: the IC50 against BRG1 is 0.117 µM.

Compound `Nc1nnc(-c2ccccc2O)cc1OC1CCCC1` [Example 176, 2-(6-amino-5-(cyclopentyloxy)pyridazin-3-yl)phenol] returned an IC50 against BRG1 of 0.0371 µM.

In turn, `Nc1nnc(-c2ccccc2O)cc1OC1CCCCC1` [Example 179, 2-(6-amino-5-(cyclohexyloxy)pyridazin-3-yl)phenol] returned an IC50 against BRG1 of 0.0451 µM. The IC50 values of the last two compounds are within 1.5-fold of each other.

In the case of `Nc1nnc(-c2ccccc2O)cc1OC1CCCN(Cc2ccccc2)C1` (stereo not drawn) [Example 181, 2-(6-amino-5-((1-benzylpiperidin-3-yl)oxy)pyridazin-3-yl)phenol], it took 0.0337 µM to reach half-maximal inhibition against BRG1 (IC50).

Turning to `Nc1nnc(-c2ccccc2O)cc1OC1CCc2ccccc21` (stereo not drawn) [Example 182, 2-(6-amino-5-((2,3-dihydro-1H-inden-1-yl)oxy)pyridazin-3-yl)phenol], at BRG1, the IC50 is 0.606 µM.

On BRG1, `Nc1nnc(-c2ccccc2O)cc1OC1CCCN(c2ccccc2)C1` (stereo not drawn) [Example 183, 2-(6-amino-5-((1-phenylpiperidin-3-yl)oxy)pyridazin-3-yl)phenol] yielded an IC50 of 0.0172 µM. This IC50 is about 35-fold lower than that of the compound before.

Compound `Nc1nnc(-c2ccccc2O)cc1OC1CCN(c2ccccc2)C1` (stereo not drawn) [Example 184, 2-(6-amino-5-((1-phenylpyrrolidin-3-yl)oxy)pyridazin-3-yl)phenol] came in with an IC50 against BRG1 of 0.192 µM.

`Nc1nnc(-c2ccccc2O)cc1OC1CCCN(C(=O)c2ccccc2)C1` (stereo not drawn) [Example 185, (3-((3-amino-6-(2-hydroxyphenyl)pyridazin-4-yl)oxy)piperidin-1-yl)(phenyl)methanone] yielded an IC50 against BRG1 of 0.641 µM.

For the compound `Nc1nnc(-c2ccccc2O)cc1C1CC1` [Example 190, 2-(6-amino-5-cyclopropylpyridazin-3 - yl)phenol], the IC50 on BRG1 is 0.0176 µM.

Compound `Cn1nccc1-c1cc(-c2ccccc2O)nnc1N` [Example 193, 2-(6-amino-5-(1-methyl-1H-pyrazol-5-yl)pyridazin-3-yl)phenol] displayed an IC50 at BRG1 of 1.08 µM.

`CC(C(=O)N(C)C)n1cc(-c2cc(-c3ccccc3O)nnc2N)cn1` (stereo not drawn) [Example 194, 2-(4-(3-amino-6-(2-hydroxyphenyl)pyridazin-4-yl)-1 H-pyrazol-1-yl)-N,N-dimethylpropanamide] returned a half-maximal inhibitory concentration (IC50) against BRG1 of 0.0247 µM. Compared with the last compound, the IC50 is about 44-fold lower.

For `C[C@H](C(=O)N(C)C)n1cc(-c2cc(-c3ccccc3O)nnc2N)cn1` [Example 195, 2-(4-(3-Amino-6-(2-hvdroxyphenyl)pyridazin-4-vl)-1H-pvrazol-1-yl)-N,N-dimethylpropanamide], it took 0.0217 µM to reach half-maximal inhibition against BRG1 (IC50).

On to `C[C@@H](C(=O)N(C)C)n1cc(-c2cc(-c3ccccc3O)nnc2N)cn1` [Example 196, 2-(4-(3-Amino-6-(2-hvdroxyphenyl)pyridazin-4-vl)-1H-pvrazol-1-yl)-N,N-dimethylpropanamide], for which, on BRG1, the 50% inhibitory concentration (IC50) was determined as 0.0247 µM.

Take `CC(C(=O)N(C)C)n1cnc(-c2cc(-c3ccccc3O)nnc2N)c1` (stereo not drawn) [Example 197, 2-(4-(3-amino-6-(2-hydroxyphenyl)pyridazin-4-yl)-1H-imidazol-1-yl)-N,N-dimethylpropanamide]: inhibition against BRG1 was half-maximal at 0.0339 µM (IC50).

In turn, `Nc1ccc(-c2ccccc2O)nn1` [Example 203, 2-(6-aminopyridazin-3-yl)phenol] registered a concentration for half-maximal inhibition (IC50) at BRG1 of 0.335 µM.

`CC(=O)Nc1ccc(-c2ccccc2O)nn1` [Example 205, N-(6-(2-hydroxyphenyl)pyridazin-3-yl)acetamide]: the IC50 against BRG1 was 1.08 µM.

At BRG1, `CN1CCC(c2cc(-c3ccccc3O)nnc2N)CC1` [Example 211, 2-(6-amino-5-(1-methylpiperidin-4-yl)pyridazin-3-yl)phenol] yielded a 50% inhibitory concentration (IC50) of 0.183 µM.

`CC(C)(C)OC(=O)N1CCC(c2cc(-c3ccccc3O)nnc2N)C1` (stereo not drawn) [Example 212, tert-butyl 3-(3-amino-6-(2-hydroxyphenyl)pyridazin-4-yl)pyrrolidine-1-carboxylate] came in with an IC50 at BRG1 of 0.0694 µM.

Regarding `Nc1nnc(-c2ccccc2O)cc1C1CCOCC1` [Example 213, 2-(6-amino-5-(tetrahydro-2H-pyran-4-yl)pyridazin-3-yl)phenol], 0.0611 µM corresponded to half-maximal inhibition on BRG1 (IC50). This IC50 and that of the compound before are within 1.5-fold of each other.

On BRG1, `Nc1nnc(-c2ccccc2O)cc1C1CCCN(Cc2ccccc2)C1` (stereo not drawn) [Example 214, 2-[6-amino-5-(1-benzyl-3-piperidyl)pyridazin-3-yl]phenol] gave an IC50 of 0.112 µM.

Compound `Nc1nnc(-c2ccccc2O)cc1C1CCNC1` (stereo not drawn) [Example 215, 2-(6-amino-5-(pyrrolidin-3-yl)pyridazin-3-yl)phenol hydrochloride] had an IC50 on BRG1 of 0.743 µM.

Consider `CN1CCC(c2cc(-c3ccccc3O)nnc2N)C1` (stereo not drawn) [Example 216, 2-(6-amino-5-(1-methylpyrrolidin-3-yl)pyridazin-3-yl)phenol 2,2,2-trifluoroacetate], for which, at BRG1, it took 0.765 µM to reach half-maximal inhibition (IC50). The IC50 values of the last two compounds are within 1.5-fold of each other.

Regarding `Cc1ccc(S(=O)(=O)N2CCC(c3cc(-c4ccccc4O)nnc3N)CC2)cc1` [Example 219, 2-(6-amino-5-(1-tosylpiperidin-4-yl)pyridazin-3-yl)phenol], the IC50 against BRG1 is 0.36 µM.

With `Cc1ccc(S(=O)(=O)N2CC=C(c3cc(-c4ccccc4O)nnc3N)CC2)cc1` [Example 222, 2-(6-amino-5-(1-tosyl-1,2,3,6-tetrahydropyridin-4-yl)pyridazin-3-yl)phenol], the IC50 against BRG1 is 0.0889 µM.

At BRG1, `Nc1nnc(-c2ccccc2O)cc1C1=CCN(Cc2ccccc2)CC1` [Example 223, 2-(6-amino-5-(1-benzyl-1,2,3,6-tetrahydropyridin-4-yl)pyridazin-3-yl)phenol] registered an IC50 of 0.0205 µM.

`Nc1nnc(-c2ccccc2O)cc1C1CCN(S(=O)(=O)c2ccccc2)CC1` [Example 224, 2-(6-amino-5-(1-(phenylsulfonyl)piperidin-4-yl)pyridazin-3-yl)phenol]: the IC50 against BRG1 was 0.0602 µM. Against the preceding compound, the IC50 is about 2.9-fold higher.

In the case of `CC(=O)N1CCC(c2cc(-c3ccccc3O)nnc2N)CC1` [Example 227, 1-(4-(3-amino-6-(2-hydroxyphenyl)pyridazin-4-yl)piperidin-1-yl)ethanone], the IC50 against BRG1 was 0.0848 µM.

Compound `CS(=O)(=O)N1CCC(c2cc(-c3ccccc3O)nnc2N)CC1` [Example 228, 2-(6-amino-5-(1-(methylsulfonyl)piperidin-4-yl)pyridazin-3-yl)phenol] yielded an IC50 against BRG1 of 0.0537 µM.

For `CC(C)(O)C(=O)N1CCC(c2cc(-c3ccccc3O)nnc2N)CC1` [Example 229, 1-(4-(3-amino-6-(2-hydroxyphenyl)pyridazin-4-yl)piperidin-1-yl)-2-hydroxy-2-methylpropan-1-one], the IC50 against BRG1 was 0.0437 µM.

On BRG1, `Nc1nnc(-c2cc(F)ccc2O)cc1-c1ccccc1` [Example 230, 2-(6-amino-5-phenylpyridazin-3-yl)-4-fluorophenol] displayed an IC50 of 0.0549 µM.

`Nc1nnc(-c2ccc(F)cc2O)cc1-c1ccccc1` [Example 231, 2-(6-amino-5-phenylpyridazin-3-yl)-5-fluorophenol] came in with an IC50 on BRG1 of 0.995 µM.

As for `Nc1nnc(-c2cc(F)cc(F)c2O)cc1-c1ccccc1` [Example 232, 2-(6-amino-5-phenylpyridazin-3-yl)-4,6-difluorophenol], on BRG1, half-maximal inhibition (IC50) required 0.176 µM. This IC50 lies about 5.7-fold lower than the previous one.

With `Nc1nnc(-c2c(O)cccc2F)cc1-c1ccccc1` [Example 233, 2-(6-amino-5-phenylpyridazin-3-yl)-3-fluorophenol], on BRG1, 0.435 µM corresponded to half-maximal inhibition (IC50).

On BRG1, `Nc1nnc(-c2ccccc2O)cc1C(=O)NCc1ccccc1` [Example 234, 3-amino-N-benzyl-6-(2-hydroxyphenyl)pyridazine-4-carboxamide] displayed an IC50 of 0.102 µM.

As to `C[C@@H]1CN(c2cc(-c3ccccc3O)nnc2N)C[C@@H](C)O1` [Example 242, 2-[6-amino-5-[(2R,6R)-2,6-dimethylmorpholin-4-yl]pyridazin-3-yl]phenol], the IC50 against BRG1 is 0.0589 µM.

On BRG1, `C[C@@H]1CN(c2cc(-c3ccccc3O)nnc2N)C[C@H](C)O1` [Example 243, 2-[6-amino-5-[(2S,6R)-2,6-dimethylmorpholin-4-yl]pyridazin-3-yl]phenol] showed an IC50 of 0.0324 µM.

On to `C[C@H]1CN(c2cc(-c3ccccc3O)nnc2N)C[C@H](C)O1` [Example 244, 2-[6-amino-5-[(2S,6S)-2,6-dimethylmorpholin-4-yl]pyridazin-3-yl]phenol], for which the IC50 against BRG1 amounted to 0.0379 µM. The IC50 values of the last two compounds are within 1.5-fold of each other.

On to `Nc1nnc(-c2ccccc2O)cc1OC1CCCNC1` (stereo not drawn) [Example 245, 2-(6-amino-5-(piperidin-3-yloxy)pyridazin-3-yl)phenol], for which, at BRG1, the concentration for half-maximal inhibition (IC50) came to 0.281 µM.

The compound `CN1CCCC(Oc2cc(-c3ccccc3O)nnc2N)C1` (stereo not drawn) [Example 246, 2-(6-amino-5-((1-methylpiperidin-3-yl)oxy)pyridazin-3-yl)phenol] displayed an IC50 against BRG1 of 0.26 µM.

As to `CC(=O)N1CCCC(Oc2cc(-c3ccccc3O)nnc2N)C1` (stereo not drawn) [Example 247, 1-(3-((3-amino-6-(2-hydroxyphenyl)pyridazin-4-yl)oxy)piperidin-1-yl)ethanone], inhibition against BRG1 was half-maximal at 0.137 µM (IC50).

For orientation: IC50 means the point on the concentration scale where inhibition reaches its midpoint. Lower therefore signals greater potency in that assay. As usually defined, the pIC50 is the IC50 on a negative log10 scale, so that one unit is a factor of ten. A high value points to a low IC50.
